Results: US20230203060A1 (GENFLEET THERAPEUTICS (SHANGHAI) INC., priority 2020, published 2023)
Where a name gives a salt, the structure may show the parent alone. Read-outs that look alike come from different tables or passages of the source.

What was measured:
Assay type in all cases: cell-based, human
[1] = tested on: KRAS G12C mutant NCI-H358 cells; assay: Cell proliferation inhibition experiment, 3D spheroid, CellTiter-Glo, NCI-H358; conditions: read-out: H358 IC50
Procedure, shortened: (§1)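 CellTiter-Glo luminescence after 5 days' compound treatment (3.16-fold series, 0.1% DMSO) of overnight-formed spheroids in 2% FBS medium: H358 seeded at 800 cells/well in RPMI-1640, A549 at 400 cells/well in F-12K. IC50 derived by four-parameter fit of inhibition normalized to DMSO control and blank.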

[2] = tested on: A549 cells (KRAS G12S mutant); assay: Cell proliferation inhibition experiment, 3D spheroid, CellTiter-Glo, A549; conditions: A549 (KRAS G12S mutant) 3D spheroid, 5 days with compound, CellTiter-Glo, read-out: A549 IC50
Procedure, shortened: as §1

[3] = tested on: KRAS G12C mutant MIA PaCa-2 cells; assay: Cell proliferation inhibition experiment, 3D spheroid, CellTiter-Glo, MIA PaCa-2; conditions: read-out: MIA-PaCa2 IC50
Procedure, shortened: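 Luminescent ATP read-out (CellTiter-Glo) after 5-day compound treatment of spheroids formed overnight from 200 MIA PaCa-2 cells/well; compounds in 3.16-fold series, 0.1% DMSO final. IC50 derived by four-parameter fit of percent inhibition, normalized to DMSO control and medium blank.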

[4] = NCI-H358 (KRAS G12C mutant) 3D spheroid, 5 days with compound, CellTiter-Glo
[5] = 3D cell model in 384-well spheroid plate, 5 days, CellTiter-Glo
[6] = Homo sapiens, NCI-H358, 120 h, NCI-H358 (KRAS G12C mutant) 3D spheroid, 5 days with compound, CellTiter-Glo
[7] = Homo sapiens, MIA PaCa-2, 120 h, 3D cell model in 384-well spheroid plate, 5 days, CellTiter-Glo

SMILES | IC50 [1, 4] | IC50 [2] | IC50 [3, 5] | IC50 [1, 6] | IC50 ([2]; Homo sapiens, A549, 120 h) | IC50 [3, 7] | further results
C=CC(=O)N1CCN2C(=O)c3c(N4CC(N(C)C5COC5)CC4(C)C)nc(-c4c(O)cccc4F)c(Cl)c3OC[C@H]2C1 (single isomer, unassigned) [Z331-2] | 1.1 nM | 9320 nM | 1.3 nM |  |  |  | 
C=CC(=O)N1CCN2C(=O)c3c(N4CCN(C)[C@H](C)C4)nc(-c4c(O)cccc4F)c(Cl)c3OC[C@H]2C1 [Z235, (6aR)-8-acryloyl-4-chloro-1-((R)-3,4-dimethylpiperazin-1-yl)-3-(2-fluoro-6-hydroxyphenyl)-6,6a,7,8,9,10-hexahydro-12H-pyrazino[2,1-c]pyrido[3,4-f][1,4]oxazepin-12-one] |  |  |  | 21 nM | 9480 nM | 22.8 nM | 
C=CC(=O)N1CCN2C(=O)c3c(N4CC(O)CC4(C)C)nc(-c4c(O)cccc4F)c(F)c3OC[C@H]2C1 (stereo partly drawn) [Z256, (6aR)-8-acryloyl-4-fluoro-3-(2-fluoro-6-hydroxyphenyl)-1-(4-hydroxy-2,2-dimethylpyrrolidin-1-yl)-6,6a,7,8,9,10-hexahydro-12H-pyrazino[2,1-c]pyrido[3,4-f][1,4]oxazepin-12-one] |  |  |  | 5 nM | 13900 nM | 10.8 nM | 
C=CC(=O)N1CCN2C(=O)c3c(N4CC(N(C)CC(F)F)CC4(C)C)nc(-c4ccccc4F)c(Cl)c3OC[C@H]2C1 (some centres unmarked) [Z659] | 1.8 nM | 5460 nM | 9.3 nM |  |  |  | 
C=CC(=O)N1CCN2C(=O)c3c(N4CC(N5CCOCC5)CC4(C)C)nc(-c4ccccc4F)c(Cl)c3OC[C@H]2C1 (single isomer, unassigned) [Z468-2] | 5 nM | 4560 nM | 12 nM |  |  |  | 
C=CC(=O)N1CCN2C(=O)c3c(N4CCN(C)C[C@@H]4C)nc(-c4c(O)cccc4Cl)c(Cl)c3OC[C@H]2C1 (single isomer, unassigned) [Z455-2] | 3.7 nM | > 10000 nM | 9.2 nM |  |  |  | 
C=CC(=O)N1CCN2C(=O)c3c(C4NCCN5C(=O)CCC45C)nc(-c4c(O)cccc4F)c(Cl)c3OC[C@H]2C1 (stereo partly drawn) [Z337, (6aR)-8-acryloyl-4-chloro-3-(2-fluoro-6-hydroxyphenyl)-1-(8a-methylhexahydropyrrolo[1,2-a]pyrazin-6 (2H)-one-1-yl)-6,6a,7,8,9,10-hexahydro-12H-pyrazino[2,1-c]pyrido[3,4-f][1,4]oxazepin-12-one] | 15 nM | > 30000 nM | 16 nM |  |  |  | 
C=CC(=O)N1CCN2C(=O)c3c(N4CCOC5(CC5)C4)nc(-c4c(O)cccc4F)c(Cl)c3OC[C@H]2C1 [Z63, (6aR)-8-acryloyl-4-chloro-1-(4-oxa-7-azaspiro[2.5]octan-7-yl)-3-(2-fluoro-6-hydroxyphenyl)-6,6a,7,8,9,10-hexahydro-12H-pyrazino[2,1-c]pyrido[3,4-f][1,4]oxazepin-12-one] |  |  |  | 14 nM | > 1000 nM | 23 nM | 
C=CC(=O)N1CCN2C(=O)c3c(N4C[C@H](N(C)C)CC4(C)C)nc(-c4ccccc4)c(Cl)c3OC[C@H]2C1 (single isomer, unassigned) [Z655-2] | 18 nM | 2750 nM | 50.9 nM |  |  |  | 
C=CC(=O)N1CCN2C(=O)c3c(N4C[C@H](NC)CC4(C)C)nc(-c4ccccc4F)c(Cl)c3OC[C@H]2C1 (single isomer, unassigned) [Z661-2] |  |  |  |  |  | 4 nM | 
C=CC(=O)N1CCN2C(=O)c3c(N4CCN(C)C(C)(C)C4)nc(-c4ccccc4F)c(Cl)c3OC[C@H]2C1 [Z463, (R)-8-acryloyl-4-chloro-3-(2-fluorophenyl)-1-(3,3,4-trimethylpiperazin-1-yl)-6,6a,7,8,9,10-hexahydro-12H-pyrazino[2,1-c]pyrido[3,4-f][1,4]oxazepin-12-one, formate] |  |  |  |  |  |  | IC50 ([1]; Homo sapiens, NCI-H358, 120 h): 39 nM; IC50 ([3]; Homo sapiens, MIA PaCa-2, 120 h): 59 nM

Further lines, with some results ahead:

IC50 [1, 4] | IC50 [2] | IC50 [3, 5] | IC50 [1, 6] | IC50 ([2]; Homo sapiens, A549, 120 h) | IC50 [3, 7] | SMILES | further results
 |  |  | 29 nM |  |  | C=CC(=O)N1CCN2C(=O)c3c(N4C[C@H](O)C[C@@H]4C)nc(-c4c(O)cccc4F)c(Cl)c3OC[C@H]2C1 [Z259, (6aR)-8-acryloyl-4-chloro-3-(2-fluoro-6-hydroxyphenyl)-1-((2S,4R)-4-hydroxy-2-methylpyrrolidin-1-yl)-6,6a,7,8,9,10-hexahydro-12H-pyrazino[2,1-c]pyrido[3,4-f][1,4]oxazepin-12-one] | 
 |  |  | 7 nM | > 30000 nM | 17 nM | C=CC(=O)N1CCN2C(=O)c3c(N(C)c4c(C)ccnc4C(C)C)nc(-c4c(O)cccc4F)c(Cl)c3OC[C@H]2C1 [Z6, (6aR)-8-acryloyl-4-chloro-3-(2-fluoro-6-hydroxyphenyl)-1-((2-isopropyl-4-methylpyridin-3-yl)(methyl)amino)-6,6a,7,8,9,10-hexahydro-12H-pyrazino[2,1-c]pyrido[3,4-f][1,4]oxazepin-12-one] | 
 |  |  | 5 nM | 27800 nM | 4.4 nM | C=CC(=O)N1CCN2C(=O)c3c(N4C[C@@H](O)C[C@@H]4C)nc(-c4c(O)cccc4F)c(Cl)c3OC[C@H]2C1 [Z260, (6aR)-8-acryloyl-4-chloro-3-(2-fluoro-6-hydroxyphenyl)-1-((2S,4S)-4-hydroxy-2-methylpyrrolidin-1-yl)-6,6a,7,8,9,10-hexahydro-12H-pyrazino[2,1-c]pyrido[3,4-f][1,4]oxazepin-12-one] | 
 |  |  | 31 nM | 4680 nM | 143 nM | C=CC(=O)N1CCN2C(=O)c3c(Nc4c(C)ccnc4C(C)C)nc(-c4c(O)cccc4F)c(Cl)c3OC[C@H]2C1 [Z5, (6aR)-8-acryloyl-4-chloro-3-(2-fluoro-6-hydroxyphenyl)-1-((2-isopropyl-4-methylpyridin-3-yl)amino)-6,6a,7,8,9,10-hexahydro-12H-pyrazino[2,1-c]pyrido[3,4-f][1,4]oxazepin-12-one] | 
 |  |  | 12 nM | > 5000 nM | 18 nM | C=CC(=O)N1CCN2C(=O)c3c(N4CC[C@@H]4C)nc(-c4c(O)cccc4F)c(Cl)c3OC[C@H]2C1 [Z68, (6aR)-8-acryloyl-1-((S)-2-methylazetidin-1-yl)-4-chloro-3-(2-fluoro-6-hydroxyphenyl)-6,6a,7,8,9,10-hexahydro-12H-pyrazino[2,1-c]pyrido[3,4-f][1,4]oxazepin-12-one] | 
16.8 nM |  |  |  |  |  | C=CC(=O)N1CCN2C(=O)c3c(N4CC(=O)N(C)CC4C)nc(-c4c(O)cccc4F)c(Cl)c3OC[C@H]2C1 (single isomer, unassigned) [Z221-2] | 
4.1 nM | 7100 nM | 1.7 nM |  |  |  | C=CC(=O)N1CCN2C(=O)c3c(N4CCN(C)C(C)C4C)nc(-c4c(O)cccc4F)c(Cl)c3OC[C@H]2C1 (stereo partly drawn) [Z308a, (6aR)-8-acryloyl-4-chloro-3-(2-fluoro-6-hydroxyphenyl)-1-(2,3,4-trimethylpiperazin-1-yl)-6,6a,7,8,9,10-hexahydro-12H-pyrazino[2,1-c]pyrido[3,4-f][1,4]oxazepin-12-one] | 
 |  |  | 30 nM |  | 34 nM | C=CC(=O)N1CCN2C(=O)c3c(N4CCNC(C)C4C)nc(-c4c(O)cccc4F)c(Cl)c3OC[C@H]2C1 (stereo partly drawn) [Z308, (6aR)-8-acryloyl-4-chloro-1-(2,3-dimethylpiperazin-1-yl)-3-(2-fluoro-6-hydroxyphenyl)-6,6a,7,8,9, 10-hexahydro-12H-pyrazino[2,1-c]pyrido[3,4-f][1,4]oxazepin-12-one] | 
 |  |  | 11 nM | > 1000 nM |  | C=CC(=O)N1CCN2C(=O)c3c(N4C[C@H](O)CC4(C)C)nc(-c4c(O)cccc4F)c(Cl)c3OC[C@H]2C1 (single isomer, unassigned) [Z82] | 
 |  |  | 1 nM | > 1000 nM |  | C=CC(=O)N1CCN2C(=O)c3c(N4C[C@@H](O)CC4(C)C)nc(-c4c(O)cccc4F)c(Cl)c3OC[C@H]2C1 (single isomer, unassigned) [Z81] | 
